± gives the expanded uncertainty stated by the source. Each block holds one molecule with its values, some of them ahead of it.
Conditions: Liquid, Ebulliometric method (Recirculating still)

Structure (SMILES): Nc1ccccc1 [aniline]
vapor or sublimation pressure (450.25 K): 85 ± 1 kPa

vapor or sublimation pressure (333.15 K): 85 ± 1 kPa
Structure (SMILES): CO [methanol]

vapor or sublimation pressure (365.65 K): 85 ± 1 kPa
Structure (SMILES): CCCCCCC [heptane]

vapor or sublimation pressure (385.75 K): 85 ± 1 kPa
Structure (SMILES): CCCCO [butan-1-ol]
